In patent publication US9738655B2, “Tetrahydroisoquinolines containing substituted azoles as factor XIa inhibitors” (BRISTOL-MYERS SQUIBB COMPANY, priority 2013, dated 2017):
Where a name gives a salt, the structure may show the parent alone.

What was measured:
[1] = molecular target: purified human Factor XIa (Homo sapiens (Human), UniProt P03951); experiment: Factor XIa enzyme inhibition assay (chromogenic substrate S-2366); conditions: read-out: Factor XIa Ki; measured at 25° C.
[2] = molecular target: purified human plasma kallikrein (Homo sapiens (Human), UniProt P03952); experiment: Plasma kallikrein enzyme inhibition assay (chromogenic substrate S-2302); assay type: biochemical; conditions: measured at 37° C. (*)
Sequence of purified human plasma kallikrein (P03952 391-638): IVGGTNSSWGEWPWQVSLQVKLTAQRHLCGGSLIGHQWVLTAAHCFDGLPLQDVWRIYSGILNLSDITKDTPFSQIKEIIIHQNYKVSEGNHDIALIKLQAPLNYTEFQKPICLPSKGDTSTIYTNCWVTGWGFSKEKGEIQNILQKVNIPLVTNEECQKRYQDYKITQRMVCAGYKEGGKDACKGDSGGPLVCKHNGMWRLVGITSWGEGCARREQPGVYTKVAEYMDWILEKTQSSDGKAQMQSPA
Sequence of purified human plasma kallikrein (P03952 20-390 partner): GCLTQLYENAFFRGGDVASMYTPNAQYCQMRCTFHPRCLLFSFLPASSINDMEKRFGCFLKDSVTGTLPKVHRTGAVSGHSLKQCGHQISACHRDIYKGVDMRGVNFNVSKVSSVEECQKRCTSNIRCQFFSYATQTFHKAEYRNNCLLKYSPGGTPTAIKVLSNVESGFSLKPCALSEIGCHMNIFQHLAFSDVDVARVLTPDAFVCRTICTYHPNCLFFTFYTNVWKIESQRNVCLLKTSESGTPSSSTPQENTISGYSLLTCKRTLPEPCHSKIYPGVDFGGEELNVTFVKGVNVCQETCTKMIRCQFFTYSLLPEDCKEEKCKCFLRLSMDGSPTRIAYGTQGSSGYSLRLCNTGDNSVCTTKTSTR

Sequence of purified human Factor XIa (P03951 388-625): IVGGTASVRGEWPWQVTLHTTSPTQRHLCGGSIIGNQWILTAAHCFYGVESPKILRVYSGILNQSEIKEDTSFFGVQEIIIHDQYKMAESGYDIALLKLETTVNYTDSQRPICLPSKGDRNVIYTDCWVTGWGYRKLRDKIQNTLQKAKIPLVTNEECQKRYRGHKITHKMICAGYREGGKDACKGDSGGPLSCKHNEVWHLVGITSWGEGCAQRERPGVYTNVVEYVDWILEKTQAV
Sequence of purified human Factor XIa (P03951 19-387 partner): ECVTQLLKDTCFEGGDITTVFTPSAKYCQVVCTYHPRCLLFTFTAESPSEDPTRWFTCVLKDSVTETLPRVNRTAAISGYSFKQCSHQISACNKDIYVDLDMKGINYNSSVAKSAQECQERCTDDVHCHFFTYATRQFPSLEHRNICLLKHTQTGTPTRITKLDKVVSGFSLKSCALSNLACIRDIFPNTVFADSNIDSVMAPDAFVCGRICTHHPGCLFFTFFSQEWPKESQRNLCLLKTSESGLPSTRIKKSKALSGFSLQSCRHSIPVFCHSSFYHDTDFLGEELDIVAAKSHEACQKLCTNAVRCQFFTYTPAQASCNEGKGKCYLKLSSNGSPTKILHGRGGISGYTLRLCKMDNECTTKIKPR

Row | SMILES | Ki [1] | Ki [2]
1 | O=C(Nc1ccccc1)C1c2cccc(Br)c2CCN1C(=O)c1cn(-c2cccc(Cl)c2F)nn1 (stereo not shown) [Example 119, 5-Bromo-2-(1-(3-chloro-2-fluorophenyl)-1H-1,2,3-triazole-4-carbonyl)-N-phenyl-1,2,3,4-tetrahydroisoquinoline-1-carboxamide] | 4440 nM | 1100 nM
2 | O=C(Nc1ccc(CO)cc1)C1c2cccc(Br)c2CCN1C(=O)c1cn(-c2cccc(Cl)c2F)nn1 (stereo not shown) [Example 120, 5-Bromo-2-(1-(3-chloro-2-fluorophenyl)-1H-1,2,3-triazole-4-carbonyl)-N-(4-(hydroxymethyl)phenyl)-1,2,3,4-tetrahydroisoquinoline-1-carboxamide] | 3940 nM | 517 nM
3 | COC1CCN(c2cccc3c2CCN(C(=O)c2cn(-c4cccc(Cl)c4F)nn2)[C@H]3C(=O)Nc2ccc(CO)cc2)CC1 [Example 121, (R)-2-(1-(3-Chloro-2-fluorophenyl)-1H-1,2,3-triazole-4-carbonyl)-N-(4-(hydroxymethyl)phenyl)-5-(4-methoxypiperidin-1-yl)-1,2,3,4-tetrahydroisoquinoline-1-carboxamide] | 1050 nM | 7900 nM
4 | COC1CCN(c2cccc3c2CCN(C(=O)c2cn(-c4cccc(Cl)c4F)nn2)[C@@H]3C(=O)Nc2ccc(CO)cc2)CC1 [Example 122, (S)-2-(1-(3-Chloro-2-fluorophenyl)-1H-1,2,3-triazole-4-carbonyl)-N-(4-(hydroxymethyl)phenyl)-5-(4-methoxypiperidin-1-yl)-1,2,3,4-tetrahydroisoquinoline-1-carboxamide] | 16.8 nM | 99.8 nM
5 | O=C(O)c1ccc(NC(=O)C2c3cccc(OC4COC4)c3CCN2C(=O)c2cn(-c3cccc(Cl)c3F)nn2)cc1 (stereo not shown) [Example 123, 4-(2-(1-(3-Chloro-2-fluorophenyl)-1H-1,2,3-triazole-4-carbonyl)-5-(oxetan-3-yloxy)-1,2,3,4-tetrahydroisoquinoline-1-carboxamido)benzoic acid] | 7.69 nM | 21.1 nM
6 | CC1(COc2cccc3c2CCN(C(=O)c2cn(-c4cccc(Cl)c4F)nn2)C3C(=O)Nc2ccc(C(=O)O)cc2)COC1 (stereo not shown) [Example 124, 4-(2-(1-(3-Chloro-2-fluorophenyl)-1H-1,2,3-triazole-4-carbonyl)-5-((3-methyloxetan-3-yl)methoxy)-1,2,3,4-tetrahydroisoquinoline-1-carboxamido)benzoic acid] | < 5 nM | 36.2 nM
7 | O=C(Nc1ccc(-c2ncc[nH]2)cc1)C1c2cccc(-c3cncnc3)c2CCN1C(=O)c1cn(-c2cccc(Cl)c2F)nn1 (stereo not shown) [Example 126, N-(4-(1H-imidazol-2-yl)phenyl)-2-(1-(3-chloro-2-fluorophenyl)-1H-1,2,3-triazole-4-carbonyl)-5-(pyrimidin-5-yl)-1,2,3,4-tetrahy-droisoquinoline-1-carboxamide, TFA salt] | < 5 nM | 94 nM
8 | O=C(Nc1ccc(-c2cc[nH]n2)cc1)C1c2cccc(-c3cncnc3)c2CCN1C(=O)c1cn(-c2cccc(Cl)c2F)nn1 (stereo not shown) [Example 127, N-(4-(1H-pyrazol-3-yl)phenyl)-2-(1-(3-chloro-2-fluorophenyl)-1H-1,2,3-triazole-4-carbonyl)-5-(pyrimidin-5-yl)-1,2,3,4-tetrahydroisoquinoline-1-carboxamide, TFA salt] | < 5 nM | 196 nM
9 | COC(=O)c1ccc2cc(NC(=O)C3c4cccc(-c5cncnc5)c4CCN3C(=O)c3cn(-c4cccc(Cl)c4F)nn3)ccc2n1 (stereo not shown) [Example 128, methyl 6-(2-(1-(3-chloro-2-fluorophenyl)-1H-1,2,3-triazole-4-carbonyl)-5-(pyrimidin-5-yl)-1,2,3,4-tetrahydroisoquinoline-1-carboxamido) quinoline-2-carboxylate, TFA salt] | < 5 nM | 65.3 nM
10 | O=C(O)c1ccc2cc(NC(=O)C3c4cccc(-c5cncnc5)c4CCN3C(=O)c3cn(-c4cccc(Cl)c4F)nn3)ccc2n1 (stereo not shown) [Example 129, 6-(2-(1-(3-chloro-2-fluorophenyl)-1H-1,2,3-triazole-4-carbonyl)-5-(pyrimidin-5-yl)-1,2,3,4-tetrahydroisoquinoline-1-carboxamido) quinoline-2-carboxylic acid, TFA salt] | < 5 nM | 34 nM
11 | O=C(Nc1ccc2cnccc2c1)C1c2cccc(-c3cncnc3)c2CCN1C(=O)c1cn(-c2cccc(Cl)c2F)nn1 (stereo not shown) [Example 130, 2-(1-(3-chloro-2-fluorophenyl)-1H-1,2,3-triazol-4-carbonyl)-N-(isoquinolin-6-yl)-5-(pyrimidin-5-yl)-1,2,3,4-tetrahydroisoquinoline-1-carboxamide, TFA salt] | 28.3 nM | 126 nM
12 | O=C(Nc1ccc(-c2ncn[nH]2)cc1)C1c2cccc(-c3cncnc3)c2CCN1C(=O)c1cn(-c2cccc(Cl)c2F)nn1 (stereo not shown) [Example 131, N-(4-(1H-1,2,4-triazol-5-yl)phenyl)-2-(1-(3-chloro-2-fluorophenyl)-1H-1,2,3-triazole-4-carbonyl)-5-(pyrimidin-5-yl)-1,2,3,4-tetrahydroisoquinoline-1-carboxamide, TFA salt] | < 5 nM | 60.3 nM
13 | COC(=O)[C@H]1CC[C@@H](NC(=O)C2c3cccc(-c4cncnc4)c3CCN2C(=O)c2cn(-c3cccc(Cl)c3F)nn2)CC1 (stereo partly drawn) [Example 132, (1R,4R)-methyl 4-(2-(1-(3-chloro-2-fluorophenyl)-1H-1,2,3-triazole-4-carbonyl)-5-(pyrimidin-5-yl)-1,2,3,4-tetrahydroisoquinoline-1-carboxamido) cyclohexanecarboxylate] | 124 nM | 1620 nM
14 | O=C(Nc1ccc(-c2ncc[nH]2)cc1)[C@@H]1c2cccc(-c3cncnc3)c2CCN1C(=O)[C@H]1CC(c2cccc(Cl)c2F)=NO1 [Example 134, (S)-N-(4-(1H-Imidazol-2-yl)phenyl)-2-((R)-3-(3-chloro-2-fluorophenyl)-4,5-dihydroisoxazole-5-carbonyl)-5-(pyrimidin-5-yl)-1,2,3,4-tetrahydroisoquinoline-1-carboxamide, TFA salt] | < 5 nM | 24.4 nM
15 | O=C(Nc1ccc(-c2ncc[nH]2)cc1)[C@H]1c2cccc(-c3cncnc3)c2CCN1C(=O)[C@H]1CC(c2cccc(Cl)c2F)=NO1 [Example 135, (R)-N-(4-(1H-imidazol-2-yl)phenyl)-2-((R)-3-(3-chloro-2-fluorophenyl)-4,5-dihydroisoxazole-5-carbonyl)-5-(pyrimidin-5-yl)-1,2,3,4-tetrahydroisoquinoline-1-carboxamide TFA salt] | < 5 nM | 399 nM
16 | Cc1c(C(=O)N2CCc3c(-c4cncnc4)cccc3C2C(=O)Nc2ccc(-c3ncc[nH]3)cc2)ncn1-c1cccc(Cl)c1F (stereo not shown) [Example 136, N-(4-(1H-Imidazol-2-yl)phenyl)-2-(1-(3-chloro-2-fluorophenyl)-5-methyl-1H-imidazole-4-carbonyl)-5-(pyrimidin-5-yl)-1,2,3,4-tetrahydroisoquinoline-1-carboxamide, 2 TFA salt] | 6.97 nM | 157 nM
17 | O=C(Nc1ccc(-c2ncc[nH]2)cc1)C1c2cccc(-c3cncnc3)c2CCN1C(=O)c1cn(-c2cccc(Cl)c2F)cn1 (stereo not shown) [Example 137, N-(4-(1H-Imidazol-2-yl)phenyl)-2-(1-(3-chloro-2-fluorophenyl)-1H-imidazole-4-carbonyl)-5-(pyrimidin-5-yl)-1,2,3,4-tetrahydroisoquinoline-1-carboxamide, 2 TFA] | < 5 nM | 53.4 nM
18 | O=C(Nc1ccc(-c2ncc[nH]2)cc1)[C@@H]1c2cccc(-c3cncnc3)c2CCN1C(=O)c1cn(-c2cccc(Cl)c2F)nn1 [Example 138, (S)-N-(4-(1H-Imidazol-2-yl)phenyl)-2-(1-(3-chloro-2-fluorophenyl)-1H-1,2,3-triazole-4-carbonyl)-5-(pyrimidin-5-yl)-1,2,3,4-tetrahydroisoquinoline-1-carboxamide, TFA salt] | < 5 nM | 25.9 nM
19 | O=C(Nc1ccc(-c2ncc[nH]2)cc1)[C@H]1c2cccc(-c3cncnc3)c2CCN1C(=O)c1cn(-c2cccc(Cl)c2F)nn1 [Example 139, (R)-N-(4-(1H-Imidazol-2-yl)phenyl)-2-(1-(3-chloro-2-fluorophenyl)-1H-1,2,3-triazole-4-carbonyl)-5-(pyrimidin-5-yl)-1,2,3,4-tetrahydroisoquinoline-1-carboxamide, TFA salt] | 133 nM | > 13000 nM
20 | COC1CCN(c2cccc3c2CCN(C(=O)c2nnn(-c4cccc(Cl)c4F)c2C)C3C(=O)Nc2ccc(-c3ncc[nH]3)cc2)CC1 (stereo not shown) [Example 140, N-(4-(1H-Imidazol-2-yl)phenyl)-2-(1-(3-chloro-2-fluorophenyl)-5-methyl-1H-1,2,3-triazole-4-carbonyl)-5-(4-methoxypiperidin-1-yl)-1,2,3,4-tetrahydroisoquinoline-1-carboxamide, 2 TFA salt] | 39.7 nM | 2370 nM
21 | COC1CCN(c2cccc3c2CCN(C(=O)c2cn(-c4cccc(Cl)c4F)nn2)C3C(=O)Nc2ccc(-c3ncc[nH]3)cc2)CC1 (stereo not shown) [Example 141, N-(4-(1H-Imidazol-2-yl)phenyl)-2-(1-(3-chloro-2-fluorophenyl)-1H-1,2,3-triazole-4-carbonyl)-5-(4-methoxypiperidin-1-yl)-1,2,3,4-tetrahydroisoquinoline-1-carboxamide, 2 TFA] | 5.95 nM | 161 nM
22 | O=C(NC12CCC(C(=O)O)(CC1)CC2)C1c2cccc(-c3cncnc3)c2CCN1C(=O)c1cn(-c2cccc(Cl)c2F)nn1 (stereo not shown) [Example 143, 4-(2-{[1-(3-Chloro-2-fluorophenyl)-1H-1,2,3-triazol-4-yl]carbonyl}-5-(pyrimidin-5-yl)-1,2,3,4-tetrahydroisoquinoline-1-amido)bicyclo[2.2.2]octane-1-carboxylic acid, 1 TFA] | 5.23 nM | 237 nM
23 | COC1CCN(c2cccc3c2CCN(C(=O)c2cc(C)n(-c4ccc(Cl)cc4)c2C)C3C(=O)Nc2ccc(C(=O)O)cc2)CC1 (stereo not shown) [Example 147, 4-(2-(1-(4-chlorophenyl)-2,5-dimethyl-1H-pyrrole-3-carbonyl)-5-(4-methoxypiperidin-1-yl)-1,2,3,4-tetrahydroisoquinoline-1-carboxamido)benzoic acid, TFA salt] | 2690 nM | > 6000 nM
